Reference: patent US7226791B2, “Polynucleotides encoding novel guanylate binding proteins (GBP's)” (Bristol-Myers Squibb Company, priority 2003, dated 2007)

Tests used:
GBP-1 [1] = target: T1, GBP-1 (Homo sapiens, UniProt P32455); settings: purified GBP-1 protein, GTP hydrolysis; read-out: Km for substrate; cited from earlier work
T1 sequence (P32455 1-592): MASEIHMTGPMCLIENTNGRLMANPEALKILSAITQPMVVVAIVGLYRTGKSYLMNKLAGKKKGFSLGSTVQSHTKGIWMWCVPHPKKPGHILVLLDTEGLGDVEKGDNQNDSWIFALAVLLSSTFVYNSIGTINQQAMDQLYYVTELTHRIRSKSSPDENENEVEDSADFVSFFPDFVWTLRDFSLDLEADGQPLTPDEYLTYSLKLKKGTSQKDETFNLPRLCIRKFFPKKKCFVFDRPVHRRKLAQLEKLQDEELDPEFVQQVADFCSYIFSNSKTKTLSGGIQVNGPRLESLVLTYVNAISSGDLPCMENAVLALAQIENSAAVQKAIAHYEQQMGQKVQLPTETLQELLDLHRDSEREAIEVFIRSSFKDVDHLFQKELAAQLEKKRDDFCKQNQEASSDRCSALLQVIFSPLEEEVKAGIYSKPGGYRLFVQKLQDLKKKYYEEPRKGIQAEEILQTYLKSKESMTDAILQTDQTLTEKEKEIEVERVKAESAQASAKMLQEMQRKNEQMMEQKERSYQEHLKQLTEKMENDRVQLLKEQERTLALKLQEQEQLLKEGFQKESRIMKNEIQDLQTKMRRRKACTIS

GBP-1 [2] = test: siRNA knockdown of GBP-1 protein expression in Cos-7 cells, myc western blot; type: cell-based; settings: Cos-7 cells co-transfected with GBP-1 expression vector, 40 nM siRNA duplex; FIG. 50A
Protocol: (§1) To test for knockdown of protein expression using siRNAs, Cos-7 cells were transfected as described herein with expression vectors encoding either GBP-1 or GBP-2 in the presence and absence of 40 nM siRNA duplex specific for either GBP-1 (“1–3”, […], (SEQ ID NO:79), Qiagen, Inc.) or GBP-2 (“582”, […] (SEQ ID NO:80), Sequitur Inc., Natick, Mass.). Approximately 18 hours following transfection, cells were harvested using trypsin, and lysed in RIPA buffer as described previously. Lysates were electrophoresed through 4–20% tris-glycine gels, transferred to nitrocellulose, blocked overnight with 5% non-fat dry milk and 0.3% BSA in Tris-buffered saline, and probed with a mouse monoclonal antibody specific for the myc epitope tag.

MCP-1 = test: TNFα-induced MCP-1 expression in human umbilical vein endothelial cells, ELISA; type: cell-based; settings: HUVECs, 100 nM siRNA duplexes, 6 hours 10 ng/ml TNFα; FIG. 50B
Protocol: (§2) In some experiments, human umbilical vein endothelial cells (HUVECs, Clonetics Corp., San Diego, Calif., USA) were transfected using lipofectamine 2000 with 100 nM siRNA duplexes. Cells were cultured overnight, and then stimulated for 6 hours with 10 ng/ml TNFα. Supernatants were analyzed for MCP-1 and IL-8 levels by ELISA (Pharmingen, San Diego, Calif., USA). Cytokine levels were corrected for cell number using the CELL TITER kit (Promega).

IL-8 = test: TNFα-induced IL-8 secretion in human umbilical vein endothelial cells, ELISA; type: cell-based; settings: HUVECs, 100 nM siRNA duplexes, 6 hours 10 ng/ml TNFα
Protocol: as §2

GBP-2 = test: siRNA knockdown of GBP-2 protein expression in Cos-7 cells, myc western blot; type: cell-based; settings: Cos-7 cells co-transfected with GBP-2 expression vector, 40 nM siRNA duplex; FIG. 50A
Protocol: as §1

[3] = Guanine nucleotide binding: Cos-7 lysates on agarose coated with GTP, myc western blot; settings: myc-tagged protein expressed in Cos-7 cells; FIG. 49
Protocol: (§3) Genes encoding different GBP family members were cloned into the vector pcDNA3.1mychis (Invitrogen) for expression in mammalian cells. Cos-7 cells were transfected with 5 μg of DNA per group using lipofectamine 2000 (Invitrogen) according to manufacturer's instructions. Approximately 18 hours after transfection, the cells were harvested using trypsin and lysed in RIPA buffer (10 mM sodium phosphate pH 7.2, 0.25 M sodium chloride, 0.1% SDS, 1% NP40, 1% sodium deoxycholate, 2 mM EDTA, protease inhibitor cocktail). An aliquot of the lysate was reserved for the whole cell lysate sample. The remainder was divided in thirds, and incubated for three hours at 4° C. with agarose coated with either GTP, GDP, or GMP (Sigma Chemical Company). The beads were pelleted, washed with buffer (0.1% NP40, 150 mM NaCl, 50 mM Tris pH7.5), and resuspended in SDS sample buffer. Samples were electrophoresed through 4–20% tris-glycine gels, transferred to nitrocellulose, blocked overnight with 5% non-fat dry milk and 0.3% BSA in Tris-buffered saline, and probed with a mouse monoclonal antibody specific for the myc epitope tag (Invitrogen).

[4] = Guanine nucleotide binding: Cos-7 lysates on agarose coated with GDP, myc western blot; settings: myc-tagged protein expressed in Cos-7 cells; FIG. 49
Protocol: as §3

[5] = Guanine nucleotide binding: Cos-7 lysates on agarose coated with GMP, myc western blot; settings: myc-tagged protein expressed in Cos-7 cells; FIG. 49
Protocol: as §3

Nc1nc2c(ncn2[C@@H]2O[C@H](COP(=O)(O)OP(=O)(O)OP(=O)(O)O)[C@@H](O)[C@H]2O)c(=O)[nH]1 [GTP]
Km (GBP-1 [1]): 470 µM

GCUCGAGAAACUACAAGAUTT, (SEQ ID NO:79) [1–3]
knockdown of GBP-1 protein expression (GBP-1 [2]): specific knockdown | inhibition of TNFα-induced MCP-1 expression (MCP-1): 70% | inhibition of IL-8 secretion (IL-8): failed to inhibit

UUUGUAUUUCCUCCAACAUTT (SEQ ID NO:80) (chemistry not given here; listed as Homo sapiens) [Compound 582]
knockdown of GBP-2 protein expression (GBP-2): specific knockdown | inhibition of TNFα-induced MCP-1 expression (MCP-1): approximately 40% | inhibition of IL-8 secretion (IL-8): failed to inhibit

B1: 4843—1: human guanylate binding protein HGBPBMY2, AA SEQ ID NO:5 (protein, listed as Homo sapiens)
chain: MESGPKMLAPVCLVENNNEQLLVNQQAIQILEKISQPVVVAIVGLYRTGKSYLMNHLAGQNHGFPLGSTVQSETKGIWMWCVPHPSKPNHTLVLLDTEGLGDVEKGDPKNDSWIFALAVLLCSTFVYNSMSTINHQALEQLHYVTELTELIKAKSSPRPDGVEDSTEFVSFFPDFLWTVRDFTLELKLNGHPITEDEYLENALKLIQGNNPRVQTSNFPRECIRRFLPKRKCFVFDRPTNDKDLLANIEKVSEKQLDPKFQEQTNIFCSYIFTHARTKTLREGITVTGNRLGTLAVTYVEAINSGAVPCLENAVITLAQRENSAAVQRASDYYSQQMAQRVKFPTDTLQELLDVHAACEREAIAIFMEHSFKDENQEFQKKFMETTMNKKGDFLLQNEESSVQYCQAKLNELSKGLMESISAGSFSVPGGHKLYMETKERIEQDYWQVPRKGVKAKEVFQRFLESQMVIEESILQSDKALTDREKAVAVDRAKKEAAEKEQELLKQKLQEQQQQMEAQVKSRKENIAQLKEKLQMEREHLLREQIMMLEHTQKVQNDWLHEGFKKKYEEMNAEISQFKRMIDTTKNDDTPWIARTLDNLADELTAILSAPAKLIGHGVKGVSSLFKKHKLPFKGGRADPAFLYKVVDLEGPRFEQKLISEEDLNMHTGHHHHHH
binding to GTP agarose beads [3]: did not bind | binding to GDP agarose beads [4]: did not bind | binding to GMP agarose beads [5]: did not bind
